The values below come from ChEMBL document CHEMBL2407053, “Pharbinilic acid, an allogibberic acid from morning glory (Pharbitis nil)” (J Nat Prod, 2013).

Data set [1] has as its system SK-OV-3. Description: Cytotoxicity against human SKOV3 cells by sulforhodamine B assay. Type of data set: functional, cell-based.
In data set [2] the test system is A549. Briefly: Cytotoxicity against human A549 cells by sulforhodamine B assay. The format is functional, cell-based. For orientation: Sulforhodamine B stains cellular protein and so reports cell mass.
Data set [3] has as its system SK-MEL-2. Description: Cytotoxicity against human SK-MEL-2 cells by sulforhodamine B assay. The format is functional, cell-based.
The test system of data set [4] is BV-2. Description: Antiinflammatory activity against mouse BV2 cells assessed as inhibition of LPS-induced NO production incubated for 30 mins prior to LPS-challenge measured after 24 hrs by Griess assay. The format is functional, cell-based. For orientation: Griess reagent forms a coloured azo dye with nitrite.
Data set [5] deals with HCT-15. Description: Cytotoxicity against human HCT15 cells by sulforhodamine B assay. Type of data set: functional, cell-based.
Data set [6] deals with BV-2. Briefly: Cytotoxicity against mouse BV2 cells by MTT assay. The format is cell-based.

In the case of `C=C1C[C@]23C[C@@]1(O)CC[C@H]2c1cc2c(C(=O)O)coc2c(C)c1[C@@H]3C(=O)O`, the IC50 – broadly, the concentration that inhibits the measured activity by half – stood at 4.83 µM in data set [1]; 15.7 µM in data set [2]; 8.36 µM in data set [3]; 32.9 µM in data set [4]; 6.79 µM in data set [5]. Further, in data set [6], the Activity result is listed as “Non-toxic”.
